{"source": "paper PMC7564282", "about": "“Juniperonic Acid Biosynthesis is Essential in Caenorhabditis elegans Lacking Δ6 Desaturase (fat-3) and Generates New ω-3 Endocannabinoids” (Cells, 2020)", "key": {"NPR-32": {"target": "T1, NPR-32 (Caenorhabditis elegans, UniProt O62403)", "T1 sequence (O62403 1-440)": "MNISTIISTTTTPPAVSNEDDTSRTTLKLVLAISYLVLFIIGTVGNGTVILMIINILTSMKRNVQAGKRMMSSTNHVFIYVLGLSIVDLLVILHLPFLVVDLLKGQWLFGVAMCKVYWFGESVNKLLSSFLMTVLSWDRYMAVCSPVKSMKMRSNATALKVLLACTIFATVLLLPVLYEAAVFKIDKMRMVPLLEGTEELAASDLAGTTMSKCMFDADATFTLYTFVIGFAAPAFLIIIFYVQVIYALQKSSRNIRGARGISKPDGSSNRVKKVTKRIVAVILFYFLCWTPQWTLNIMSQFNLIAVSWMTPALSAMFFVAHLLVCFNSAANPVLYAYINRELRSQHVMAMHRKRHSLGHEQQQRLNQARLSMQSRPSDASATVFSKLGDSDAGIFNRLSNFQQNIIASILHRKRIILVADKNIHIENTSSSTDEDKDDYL", "assay": "Saturation binding of [3H]CP55,940 to NPR-32 receptors", "design": "species or system C. elegans", "settings": "saturation binding curve, worm membranes, read-out: apparent Kd", "experimental": "(§1) Briefly, 75 μg of crude membrane preparations were resuspended in 300 μL of assay buffer (50 mM Tris-HCl, 2.5 mM EDTA, 5 mM MgCl2, 0.5% BSA, pH 7.5) in silanized glass tubes and preincubated with 5 µM JZL-195 for 30 min at 30 °C. […] CP55,940 for 75 min at 30 °C. After the incubation time, membrane suspensions were rapidly filtered through a 0.1% polyethyleneimine presoaked 96-well microplate bonded with GF/B glass fiber filters (UniFilter-96 GF/B, PerkinElmer Life Sciences) under vacuum and washed 12 times with 120 µL of washing buffer (50 mM Tris-HCl, 2.5 mM EDTA, 5 mM MgCl2, 0.5% BSA, pH 7.5). Filters were added with 50 µL of MicroScint20 scintillation liquid, and radioactivity was measured with the 1450 MicroBeta Trilux top counter (PerkinElmer Life Sciences). The results were analyzed with GraphPad Prism 5® and expressed as % of [^3H]CP55,940 binding. IC50 values of each compound were estimated from fitted nonlinear curves and were used to calculate the Ki values by applying the Cheng-Prusoff equation. Specific binding was determined using the npr-32(ok2541) mutant strain in which saturation binding was abolished. Importantly, normalizing against the NPR-19 null mutant strain- npr-19(ok2068), no saturation binding curve could be achieved.\nHowever, no binding or other direct interactions between AEA and these GPCRs were reported. […]"}, "NPR-19": {"tested_on": "NPR-19", "assay": "[3H]CP55,940 binding normalized against NPR-19 null mutant npr-19(ok2068)", "design": "species or system C. elegans", "settings": "no saturation binding curve (data not shown)", "experimental": "as §1"}}, "data": [{"smiles": "CCCCCCC(C)(C)c1ccc([C@@H]2C[C@H](O)CC[C@H]2CCCO)c(O)c1", "note": "[CP55,940]", "values": [{"measurement": "Kd", "setting": "NPR-32", "result": "2.5 ± 1.8", "unit": "nM"}, {"measurement": "binding to NPR-19", "setting": "NPR-19", "result": "did not bind"}]}]}
